Columns and labels:
[1] = test system: strychnine-induced allodynia; details: lumbar intrathecal
Method: Injections into the 6th lumbar intrathecal space were performed according to the method of Hylden and Wilcox (Brain Research 217: 212-215, 1981). The total volume used for injection in all experiments was 5 microliters of artificial cerebrospinal fluid (aCSF). In mice anesthetized with isoflurane, strychnine at 200 micromolar in 5 microliters of aCSF was injected either alone or in combination with compound (Ia) at concentrations of 4 to 8 millimolar in a total volume of 5 microliters of aCSF. In each experiment 2 mice were injected with 5 microliters of solution within one minute of each other. One of the mice received strychnine 200 micromolar in aCSF (control) and the other received the same volume with strychnine 200 micromolar in combination with the test compound (Ia). The mice were placed in a container designed such that they were unaware of the other, but could be simultaneously observed. The presence of flinching, scratching or vocalization in response to touching with a fine hair was noted every two minutes. Responses limited to lumbar segments 5 and 6, as well as originating from more caudal nerve distribution were considered as positive. A continuous video recording was made of all responses. Each experiment consisted of 6 to 9 pairs of mice. The blinded observer decided which animal had the greatest response to stimuli. A Wilcoxon signed rank test was used to determine the statistical significance of the results.

[2] = Overall behavioral observation of the animals studied; assay type: in vivo; details: all animals studied
[3] = test system: strychnine-induced allodynia; assay type: in vivo, mouse; details: for effect on hyperalgesia or allodynia (vocalization, flinching, scratching): 4 millimolar with strychnine 200 micromolar in 5 microliters aCSF, p<0.01; for effect on hyperalgesia or allodynia (vocalization, flinching, scratching) / behavior of mice treated with compound and strychnine / side effects in treated animals: cisterna magna; for behavior of mice treated with compound and strychnine: 4 millimolar with strychnine 200 micromolar, compared with aCSF control; for side effects in treated animals: 4 millimolar; for analgesia against trigeminal hyperalgesia or allodynia compared with carbamazepine / analgesia against trigeminal hyperalgesia or allodynia compared with morphine: overall summary
Method: Strychnine when administered alone to the intact rodent mimics the allodynia of chronic pain resulting from damage to inhibitory amino acid functions in the central nervous system.
In the present example, injections into the cisterna magna of the mouse were performed as described by Reijneveld, Taphoorn, and Voerst (Journal of Neurooncology 42: 137-142, 1999). Each series of experiments consisted of 6 to 9 pairs of mice. […] In each session, two mice were injected with the strychnine solution within one minute of each other. […] A continuous video recording was made of all responses.

[4] = test system: pain of formalin injection in the mouse foot; test: Formalin hindpaw licking test, intravenous pre-treatment; assay type: in vivo, mice; details: for analgesia in peripherally induced pain, intravenous administration: overall summary
Method: Groups of mice (n=10) were injected intravenously with a dose of 500 mg/kg of compound (Ia) at 10 minutes prior to subcutaneous formalin injection into the right hindpaw. After the injection of formalin (5% in 20 microliters), the animals were monitored for 40 min for licking activity.

[5] = test system: pain of formalin injection in the mouse foot; test: Formalin hindpaw licking test, lumbar intrathecal pre-treatment; assay type: in vivo, mice; details: for activity against peripherally induced pain, administered to the lumbar cord: overall summary; for cumulative paw licking / licking, early phase (reflecting acute pain) / licking, late phase (reflecting chronic pain): 250 micromolar in 5 microliters, lumbar intrathecal; for cumulative paw licking: 5 minutes before formalin, 40 min, p-value<0.001; for licking, early phase (reflecting acute pain) / licking, late phase (reflecting chronic pain): FIG. 4
Method: The effects of compound (Ib) and (Ic) were determined in the acute and chronic peripheral pain model according to Kolesnikov, Cristea, Oksman, Torosjan, and Wilson (Brain Research 17: 217-223, 2004). Use of this model involves pre-treatment with the test compound and injection of formalin (5% in 20 microliters) into the right hindpaw of mice. Groups of mice (n=10) were injected intrathecally into the lumbar segment with compound (Ib) or (Ic) at 250 micromolar in 5 microliters, at 5 minutes prior to subcutaneous formalin injection into the right hindpaw. The mice were monitored for 40 min for licking activity and assessed according to the method of Abbott, Franklin, and Westbrook (Pain 60: 91-102, 1995).

[6] = Rotarod test (ataxia, central toxicity) after intravenous administration; details: for rotarod performance versus control saline and pre- versus post-injection: 500 mg/kg, 3 ml/kg, tail vein, 10 mice per group, ANOVA p<0.05
Method: Changes in central nervous system behavior viewed as ataxia were measured using the rotarod procedure in mice, described by Vaupel, McConn, and Cone (Journal of Pharmacology & Experimental Therapeutics, 230: 20-27, 1984). A 27-mm diameter rod was rotated at 5 rpm. At least 1 day before testing, mice were trained in three sessions on the rod for two consecutive 5 minute trials, separated by a 5 minute rest period. During the tests, each trial on the rotarod was limited to a 120 seconds maximum. For all experiments two control trials obtained 6 minutes apart preceded the injection (500 mg/kg, 3 ml/kg) of compound (Ib) or (Ic) into the tail vein. Each mouse was then given 2 trials, with 6 minutes between trials after the injection.
The data were analyzed as means±SEM of 10 mice in each group, and examined by analysis of variance (ANOVA) for multiple comparisons with the single control group. Level of significance was set to 5% (p<0.05).

Compound | behavioral toxicity [2] | effect on hyperalgesia or allodynia (vocalization, flinching, scratching) ([3]; FIG. 1) | behavior of mice treated with compound and strychnine [3] | side effects in treated animals [3] | analgesia against trigeminal hyperalgesia or allodynia compared with carbamazepine [3] | analgesia against trigeminal hyperalgesia or allodynia compared with morphine [3] | activity against peripherally induced pain, administered to the lumbar cord [5] | analgesia in peripherally induced pain, intravenous administration [4] | cumulative paw licking [5] | licking, early phase (reflecting acute pain) [5] | licking, late phase (reflecting chronic pain) [5] | rotarod performance versus control saline and pre- versus post-injection [6] | also measured
CCC(C)(N)C(=O)O (racemic) [(Ia), Isovaline (2-Amino-2-methylbutanoic acid)] | no observed behavioral toxicity | a great reduction and a total blockade of hyperalgesia or allodynia | identical to the mice which received the aCSF control injection without strychnine | no side effects such as sedation, movement disorders, or abnormal behavior | surpassed the analgesia produced by carbamazepine | to a much greater degree than the tested reference opioid, morphine | active against acute and chronic pain induced peripherally | – | – | – | – | – | pairs of mice in which blinded observer identified presence of compound ([1]; 8 millimolar plus strychnine 200 micromolar, 5 microliter, FIG. 3, p<0.01): 6 out of 6; effect of sole administration (without strychnine) ([1]; 25 microliters at 10 millimolar, no strychnine): did not produce a significant result; duration of effect [1]: at least 60 minutes; sedation, movement disorders, abnormal behaviour in treated animals ([1]; 8 millimolar): no sedation, movement disorders, or abnormal behaviour; behavior of treated mice without concomitant strychnine injection ([1]; no strychnine, compared with aCSF control): identical to those mice that received aCSF control injection; licking, late phase (reflecting chronic pain) ([4]; 500 mg/kg intravenously, 10 minutes before formalin, 10 to 40 minutes, FIG. 5, p<0.001): significantly reduced
CCC(C)(N)C(=O)O (single isomer, unassigned) [(Ib), Isovaline (2-Amino-2-methylbutanoic acid)] | no observed behavioral toxicity | The same effects were obtained | identical to the mice which received the aCSF control injection without strychnine | no side effects such as sedation, movement disorders, or abnormal behavior | surpassed the analgesia produced by carbamazepine | to a much greater degree than the tested reference opioid, morphine | active against acute and chronic pain induced peripherally | effective in producing analgesia | significantly reduced | significantly reduced | significantly reduced | did not show significant differences | –
CCC(C)(N)C(=O)O (single isomer, unassigned) [(Ic), Isovaline (2-Amino-2-methylbutanoic acid)] | no observed behavioral toxicity | The same effects were obtained | identical to the mice which received the aCSF control injection without strychnine | no side effects such as sedation, movement disorders, or abnormal behavior | surpassed the analgesia produced by carbamazepine | to a much greater degree than the tested reference opioid, morphine | active against acute and chronic pain induced peripherally | effective in producing analgesia | significantly reduced | significantly reduced | significantly reduced | did not show significant differences | –
CCC(C)(N)C(=O)O (centres unmarked) [Formula (I), Isovaline (2-Amino-2-methylbutanoic acid)] | – | – | – | – | – | – | – | – | – | – | – | – | blood-brain-barrier crossing ([4]; inferred from analgesia after intravenous administration): crosses the blood-brain-barrier; central nervous system toxicity, such as ataxia or other disturbances in conscious behavior ([6]; mouse, in vivo): no evidence
NC(=O)N1c2ccccc2C2OC2c2ccccc21 (centres unmarked) [carbamazepine epoxide, reference compound] | – | – | – | – | – | – | – | – | – | – | – | – | analgesic effect ([3]; 30 mg/kg body weight, FIG. 1): an analgesic effect
CN1CC[C@]23c4c5ccc(O)c4O[C@H]2[C@@H](O)C=C[C@H]3[C@H]1C5 [morphine, reference compound] | – | – | – | – | – | – | – | – | – | – | – | – | responses to intracisternal injections (analgesia) ([3]; 1 mg/kg body weight, intracisternal, FIG. 1): poor or absent

From patent publication US8278355B2, “Isovaline for treatment of pain” (Therexcell Pharma Inc., priority 2006, dated 2012)
